Results on 25 compounds are retold here after ChEMBL document CHEMBL3875146, “Mycobacterium Tuberculosis (MTB) GyrB inhibitors: An attractive approach for developing novel drugs against TB” (Eur J Med Chem, 2016).

pIC50: −log10 of the molar value. Values after ≈ are worked out from the molar mass of the structure shown.

The subject of data set [1] is Mycobacterium tuberculosis. Description: Inhibition of Mycobacterium tuberculosis topoisomerase-1 using DNA as substrate preincubated for 15 mins followed by substrate addition measured after 30 mins by ethidium-bromide based agarose gel electrophoresis.
The test system of data set [2] is Mycobacterium tuberculosis. Description: Antimycobacterial activity against Mycobacterium tuberculosis. The data set is classed as functional.
The target in data set [3] is T1, DNA gyrase subunit A/DNA gyrase subunit B (Mycobacterium tuberculosis (strain ATCC 25618 / H37Rv), UniProt P9WG45+P9WG47). Description: Inhibition of Mycobacterium tuberculosis DNA gyrase assessed as inhibition of DNA supercoiling activity using relaxed pBR322 as substrate incubated for 30 mins in presence of ATP by ethidium bromide staining based agarose gel electrophoresis.

Another data set relates to Escherichia coli. Put plainly: Antimicrobial activity against Escherichia coli. The data set is classed as functional.
Data set [4] in a line: Inhibition of Escherichia coli DNA gyrase assessed as inhibition of DNA supercoiling activity using relaxed pBR322 as substrate incubated for 30 mins in presence of ATP by ethidium bromide staining based agarose gel electrophoresis.
A short description of data set [5]: Inhibition of Staphylococcus aureus WCUH29 DNA gyrase expressed in Escherichia coli Rosetta 2 (DE3) pLysS cells assessed as inhibition of DNA supercoiling activity using relaxed pBR322 as substrate incubated for 30 mins in presence of ATP by ethidium bromide staining based agarose gel electrophoresis.
For data set [6], the target named is DNA gyrase subunit A/DNA gyrase subunit B (Mycobacterium tuberculosis (strain ATCC 25618 / H37Rv)) (UniProt P9WG45+P9WG47). Put plainly: (§1) Inhibition of Mycobacterium tuberculosis DNA gyrase assessed as inhibition of DNA supercoiling activity using relaxed pBR322 as substrate incubated for 30 mins by ethidium bromide staining based agarose gel electrophoresis.

For another data set, the target named is DNA gyrase subunit B (Mycobacterium smegmatis, UniProt P0C559). Put plainly: Inhibition of Mycobacterium smegmatis DNA gyrase B expressed in BL21(DE3)pLysS cells assessed as inhibition of […] activity in presence of ATP measured after 30 mins by malachite green dye based assay. The format is cell-based, Mycolicibacterium smegmatis.
The target in data set [7] is T1, DNA gyrase subunit A/DNA gyrase subunit B. The data set is described as §1.
A short description of data set [8]: Cytotoxicity against mouse RAW264.7 cells assessed as inhibition of cell viability at 100 uM measured after 72 hrs by MTT assay relative to control. The data set is classed as toxicity. The conditions noted are these: read-out: INH.
In data set [9] the target is DNA gyrase subunit B (Mycobacterium smegmatis) (UniProt P0C559). Put plainly: Inhibition of Mycobacterium smegmatis DNA gyrase-B ATPase activity after 30 mins by ammonium molybdate/malachite green-based phosphate detection assay. The conditions noted are these: Mycolicibacterium smegmatis.
The test system of data set [10] is Mycobacterium tuberculosis. Put plainly: Antimycobacterial activity against Mycobacterium tuberculosis measured after 5 days by microplate alamar blue assay. The settings on record: 120 h. The data set is classed as functional.

Chain of DNA gyrase subunit B (P0C559 whole entry): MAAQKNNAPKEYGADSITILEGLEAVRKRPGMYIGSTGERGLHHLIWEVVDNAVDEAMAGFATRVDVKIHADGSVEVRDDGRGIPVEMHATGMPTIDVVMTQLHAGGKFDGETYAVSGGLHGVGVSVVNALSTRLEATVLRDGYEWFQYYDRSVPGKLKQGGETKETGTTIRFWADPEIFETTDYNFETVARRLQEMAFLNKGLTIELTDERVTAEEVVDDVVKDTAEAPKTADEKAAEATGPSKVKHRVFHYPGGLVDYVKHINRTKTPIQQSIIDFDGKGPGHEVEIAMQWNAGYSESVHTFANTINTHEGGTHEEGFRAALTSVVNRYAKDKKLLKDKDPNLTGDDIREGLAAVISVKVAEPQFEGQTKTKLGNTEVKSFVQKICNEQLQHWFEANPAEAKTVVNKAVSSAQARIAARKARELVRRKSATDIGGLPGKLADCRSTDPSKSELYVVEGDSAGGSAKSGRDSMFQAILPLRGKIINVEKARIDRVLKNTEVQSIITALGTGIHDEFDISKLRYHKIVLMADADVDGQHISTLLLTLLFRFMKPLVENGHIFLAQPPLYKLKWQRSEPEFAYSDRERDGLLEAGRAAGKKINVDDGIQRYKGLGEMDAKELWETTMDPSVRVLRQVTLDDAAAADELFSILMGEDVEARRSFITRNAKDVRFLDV
T1 sequence (P9WG45 whole entry): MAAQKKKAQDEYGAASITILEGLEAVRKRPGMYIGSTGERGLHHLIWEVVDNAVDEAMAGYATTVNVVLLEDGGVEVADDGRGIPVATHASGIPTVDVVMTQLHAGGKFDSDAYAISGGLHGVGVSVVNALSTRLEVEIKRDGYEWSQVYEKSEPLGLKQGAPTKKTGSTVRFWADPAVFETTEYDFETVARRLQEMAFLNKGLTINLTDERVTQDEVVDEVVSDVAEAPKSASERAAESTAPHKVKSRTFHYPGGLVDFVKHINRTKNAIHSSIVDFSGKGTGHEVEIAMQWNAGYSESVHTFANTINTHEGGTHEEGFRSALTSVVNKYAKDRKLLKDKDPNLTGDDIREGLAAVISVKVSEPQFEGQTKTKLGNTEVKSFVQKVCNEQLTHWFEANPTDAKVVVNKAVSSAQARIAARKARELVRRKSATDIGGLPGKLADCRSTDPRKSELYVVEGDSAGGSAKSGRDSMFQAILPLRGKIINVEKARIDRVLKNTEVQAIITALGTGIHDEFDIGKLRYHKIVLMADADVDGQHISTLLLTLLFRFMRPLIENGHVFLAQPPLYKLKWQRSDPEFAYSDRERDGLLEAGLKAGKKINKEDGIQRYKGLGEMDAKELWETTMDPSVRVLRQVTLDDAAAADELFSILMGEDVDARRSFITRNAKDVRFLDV
T1 sequence (P9WG47 whole entry): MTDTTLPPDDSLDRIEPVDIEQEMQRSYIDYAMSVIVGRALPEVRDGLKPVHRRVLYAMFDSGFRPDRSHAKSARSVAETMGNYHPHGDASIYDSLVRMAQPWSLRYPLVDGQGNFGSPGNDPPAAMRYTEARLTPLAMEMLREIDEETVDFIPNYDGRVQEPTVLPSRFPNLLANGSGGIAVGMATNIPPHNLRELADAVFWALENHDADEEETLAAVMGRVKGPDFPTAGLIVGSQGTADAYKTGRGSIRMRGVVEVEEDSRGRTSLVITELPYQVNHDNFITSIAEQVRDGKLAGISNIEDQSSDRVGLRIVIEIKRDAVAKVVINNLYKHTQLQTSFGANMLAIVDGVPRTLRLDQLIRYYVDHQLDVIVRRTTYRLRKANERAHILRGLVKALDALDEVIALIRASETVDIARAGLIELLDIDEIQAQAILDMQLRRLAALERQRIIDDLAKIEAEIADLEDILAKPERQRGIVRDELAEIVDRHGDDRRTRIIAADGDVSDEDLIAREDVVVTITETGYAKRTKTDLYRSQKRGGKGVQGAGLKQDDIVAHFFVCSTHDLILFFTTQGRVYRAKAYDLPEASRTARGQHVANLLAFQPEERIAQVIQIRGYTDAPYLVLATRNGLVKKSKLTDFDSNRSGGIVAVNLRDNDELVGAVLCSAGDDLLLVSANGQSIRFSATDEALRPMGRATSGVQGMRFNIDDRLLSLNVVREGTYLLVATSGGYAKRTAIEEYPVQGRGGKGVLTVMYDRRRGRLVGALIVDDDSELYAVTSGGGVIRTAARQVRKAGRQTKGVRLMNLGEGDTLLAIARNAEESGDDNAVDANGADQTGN
Chain of DNA gyrase subunit B (Mycobacterium smegmatis) (P0C559 2-675 limits assumed): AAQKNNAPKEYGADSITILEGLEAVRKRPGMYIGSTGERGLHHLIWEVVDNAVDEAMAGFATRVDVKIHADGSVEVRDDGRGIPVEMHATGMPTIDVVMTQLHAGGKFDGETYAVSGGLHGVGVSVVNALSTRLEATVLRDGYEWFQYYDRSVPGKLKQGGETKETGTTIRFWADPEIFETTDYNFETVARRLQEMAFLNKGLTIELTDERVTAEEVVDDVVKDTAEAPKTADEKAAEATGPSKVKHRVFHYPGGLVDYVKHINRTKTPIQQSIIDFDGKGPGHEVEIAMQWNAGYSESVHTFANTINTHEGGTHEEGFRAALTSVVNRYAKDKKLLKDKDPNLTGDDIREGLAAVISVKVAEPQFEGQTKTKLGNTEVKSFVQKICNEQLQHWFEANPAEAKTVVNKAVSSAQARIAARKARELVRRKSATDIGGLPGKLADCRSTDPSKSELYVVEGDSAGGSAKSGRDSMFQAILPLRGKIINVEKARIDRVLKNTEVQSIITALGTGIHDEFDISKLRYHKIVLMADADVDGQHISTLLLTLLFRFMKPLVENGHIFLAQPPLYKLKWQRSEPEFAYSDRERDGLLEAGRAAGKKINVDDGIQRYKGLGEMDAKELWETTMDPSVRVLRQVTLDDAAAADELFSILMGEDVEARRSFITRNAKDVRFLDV

Regarding `Brc1c2ccccc2c(Br)c2nc(-c3ccco3)c(-c3ccco3)nc12`, the INH in data set [1] came out at 0.1 µM. As to `O=C1COc2ccc(CNC3CCN(CC4CCc5c(F)ccc6ccc(=O)n4c56)CC3)nc2N1` (configuration not stated), the MIC in data set [2] was in the range of 300 to 2000 µg/mL (≈ 628 to 4190 µM).

`Cc1cc2c(c(O)c1-c1c(C)cc(O)c3c1C(=O)C=CC3=O)C(=O)C=CC2=O`: in data set [3], the negative-log IC50 (pIC50) was 4.00.

In the case of `COc1ccc2ncc(=O)n(-c3cnc4c(c3)CCC(NCc3ccc5c(n3)NC(=O)CO5)C4)c2n1` (configuration not stated), the minimum inhibitory concentration (MIC) in data set [2] was in the range of 300 to 2000 µg/mL (≈ 618 to 4120 µM). As for `CCCCCCN1CCC(CCC(O)c2ccnc3ccc(OC)cc23)C(CC)C1` (configuration not stated), the minimal inhibitory concentration (MIC) against Escherichia coli was 4000 µg/mL (≈ 9690 µM). As to `CC1=CC(=O)c2ccccc2C1=O` [MENADIONE], in data set [3], the pIC50 is < 3.70. For the compound `Cc1cc(O)c2c(c1)C(=O)C=CC2=O` [RAMENTACEONE], the pIC50 in data set [3] is 4.52; in data set [4], 4.52; in [5], 4.22. For the compound `Cc1cc(O)c2c(c1)C(=O)C=C(c1c(C)cc(O)c3c1C(=O)C=CC3=O)C2=O` [NEODIOSPYRIN], in data set [3], the pIC50 is 4.30. Compound `c1ccc(N2CCC(Cc3nc4cc5ccccc5cc4nc3CN3CCN(c4ccccn4)CC3)CC2)nc1` gave an INH in [1] of 7.5 µM.

For the compound `Clc1ccc(/N=N/c2cnc3cc4ccccc4cc3n2)cc1`, in data set [6], the INH came out at 12 µM. As to `O=C1CSc2ccc(CNC3CCN(CC4CCN5C(=O)C=CC6N=CC(=O)N4C65)CC3)nc2N1` (configuration not stated), the MIC in data set [2] lay within 300 to 2000 µg/mL (≈ 605 to 4040 µM).

For `Cn1ccc2cc(-c3cnc4nc(-c5ccccc5)cnc4c3)ccc21`, the INH in data set [1] amounted to 0.1 µM.

Regarding `Cc1cc(O)c2c(c1)C(O)CCC2=O` (configuration not stated), the negative-log IC50 (pIC50) in data set [3] is < 3.70. For `Cc1cc(O)c2c(c1)C(=O)C(c1c(C)cc3c(c1O)C(=O)C=CC3=O)=CC2=O` [DIOSPYRIN], the negative-log IC50 (pIC50) in data set [3] was 4.82; in data set [4], 5.40; in data set [5] it was 5.10. As for `O=C1C(=O)N(CCN2CCN(NCc3ccccc3F)CC2)c2ccccc21`, the pIC50 at DNA gyrase subunit B was 4.08; in data set [7], 4.36. Also, in [8], the cytotoxicity at 72 h, 100 µM is 10.3%. The compound `O=C1COc2ccc(CNC3CCN(CCn4c(=O)ccc5cc(F)ccc54)CC3)nc2N1` had an MIC in data set [2] of 300 to 2000 µg/mL (≈ 664 to 4430 µM).

In turn, `Clc1cccc(-c2cnc3cc(-c4ccc5cn[nH]c5c4)cnc3n2)c1` yielded an INH in [1] of 7.5 µM.

`Fc1ccc(/N=N/c2cnc3cc4ccccc4cc3n2)cc1`: the INH in data set [6] turned out to be 50 µM. With `Cc1ccc2c(c1)C(=O)C(=O)N2CCN1CCN(NCc2ccccc2F)CC1`, the negative logarithm of the IC50 (pIC50) is 4.12 at DNA gyrase subunit B and 4.30 in [7]. Further, the cytotoxicity at 72 h, 100 µM in data set [8] is 27.6%.

For the compound `Cc1ccc(-c2cnc3cc(-c4ccc5[nH]ccc5c4)cnc3n2)cc1`, the INH in data set [1] came out at 0.1 µM. Turning to `COc1ccc2c(c1)C(=O)C(=O)N2CCN1CCN(NCc2ccccc2)CC1`, the negative logarithm of the IC50 (pIC50) on DNA gyrase subunit B was 4.04; in data set [7] it was 4.32. In data set [8], the cytotoxicity at 72 h, 100 µM turned out to be 21.6%. Compound `CCNC(=O)Nc1nc2cc(-c3cncnc3)c(OCC3CCOCC3)nc2s1` showed an INH in [9] of 2.5 nM. In data set [10], this compound gave an MIC of 60 µg/mL (≈ 145 µM). As for `O=C1C(=O)N(CCN2CCN(NCc3ccc(Cl)cc3Cl)CC2)c2ccc(F)cc21`, the pIC50 is 4.37 at DNA gyrase subunit B and 4.62 in data set [7]. In data set [8], the cytotoxicity at 72 h, 100 µM was determined as 13.9%. The corresponding values for `Cc1ccc2c(c1)C(=O)C(=O)N2CCN1CCN(NCc2ccccc2OCc2ccccc2)CC1` are 4.55, 5.00 and 34.6%. The corresponding values for `Cc1ccc2c(c1)C(=O)C(=O)N2CCN1CCN(NCc2ccc(Cl)cc2Cl)CC1` are 4.10, 4.31 and 25.3%.
